Measurements published in patent EP4678638A1, “NEW E3 UBIQUITIN LIGASE LIGAND, PROTEIN DEGRADATION AGENT AND USE THEREOF” (priority 2023, dated 2024).

What was measured:
ALK = molecular target: T1, ALK (Homo sapiens, UniProt Q96SW2+Q9HC35+Q9UM73); assay: Western blot degradation of ALK (H2228 Cell); type: cell-based; conditions: Table D5
T1 construct: evaluate the effects of the compounds of the present disclosure on the expression of target proteins in cells; endogenous in cells; host or cells: H2228
T1 sequence (Q9HC35+Q9UM73 fused): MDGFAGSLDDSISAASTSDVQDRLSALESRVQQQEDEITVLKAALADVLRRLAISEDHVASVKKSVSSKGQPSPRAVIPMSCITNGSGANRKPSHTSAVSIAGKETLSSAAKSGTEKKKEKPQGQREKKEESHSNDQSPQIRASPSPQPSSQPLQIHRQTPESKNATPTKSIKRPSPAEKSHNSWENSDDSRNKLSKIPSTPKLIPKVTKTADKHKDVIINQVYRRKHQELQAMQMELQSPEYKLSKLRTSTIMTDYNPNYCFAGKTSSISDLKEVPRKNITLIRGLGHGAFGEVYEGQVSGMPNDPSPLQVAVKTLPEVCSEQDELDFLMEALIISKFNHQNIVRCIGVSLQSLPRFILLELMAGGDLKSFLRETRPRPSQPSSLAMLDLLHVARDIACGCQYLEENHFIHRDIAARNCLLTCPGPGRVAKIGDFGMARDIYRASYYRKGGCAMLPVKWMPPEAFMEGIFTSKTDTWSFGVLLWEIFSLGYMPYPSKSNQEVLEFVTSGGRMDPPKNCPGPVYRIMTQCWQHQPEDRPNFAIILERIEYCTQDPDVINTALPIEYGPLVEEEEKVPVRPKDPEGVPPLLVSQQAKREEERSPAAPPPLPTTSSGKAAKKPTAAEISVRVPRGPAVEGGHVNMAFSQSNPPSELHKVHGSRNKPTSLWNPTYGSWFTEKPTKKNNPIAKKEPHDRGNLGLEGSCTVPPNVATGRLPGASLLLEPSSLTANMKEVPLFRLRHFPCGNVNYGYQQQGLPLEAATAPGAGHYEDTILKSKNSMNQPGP
T1 sequence (Q96SW2 whole entry): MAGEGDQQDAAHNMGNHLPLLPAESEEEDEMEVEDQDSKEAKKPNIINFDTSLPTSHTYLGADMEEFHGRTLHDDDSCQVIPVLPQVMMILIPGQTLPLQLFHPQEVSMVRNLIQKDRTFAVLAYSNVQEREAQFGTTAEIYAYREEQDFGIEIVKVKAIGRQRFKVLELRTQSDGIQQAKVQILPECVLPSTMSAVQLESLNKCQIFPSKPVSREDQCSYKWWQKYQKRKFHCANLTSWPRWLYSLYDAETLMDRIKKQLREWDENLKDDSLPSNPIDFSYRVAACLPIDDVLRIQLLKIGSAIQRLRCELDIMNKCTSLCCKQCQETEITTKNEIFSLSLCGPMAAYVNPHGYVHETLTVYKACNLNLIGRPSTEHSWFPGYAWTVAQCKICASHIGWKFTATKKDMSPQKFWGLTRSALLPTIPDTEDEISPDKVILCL
T1 sequence (Q16531 whole entry partner): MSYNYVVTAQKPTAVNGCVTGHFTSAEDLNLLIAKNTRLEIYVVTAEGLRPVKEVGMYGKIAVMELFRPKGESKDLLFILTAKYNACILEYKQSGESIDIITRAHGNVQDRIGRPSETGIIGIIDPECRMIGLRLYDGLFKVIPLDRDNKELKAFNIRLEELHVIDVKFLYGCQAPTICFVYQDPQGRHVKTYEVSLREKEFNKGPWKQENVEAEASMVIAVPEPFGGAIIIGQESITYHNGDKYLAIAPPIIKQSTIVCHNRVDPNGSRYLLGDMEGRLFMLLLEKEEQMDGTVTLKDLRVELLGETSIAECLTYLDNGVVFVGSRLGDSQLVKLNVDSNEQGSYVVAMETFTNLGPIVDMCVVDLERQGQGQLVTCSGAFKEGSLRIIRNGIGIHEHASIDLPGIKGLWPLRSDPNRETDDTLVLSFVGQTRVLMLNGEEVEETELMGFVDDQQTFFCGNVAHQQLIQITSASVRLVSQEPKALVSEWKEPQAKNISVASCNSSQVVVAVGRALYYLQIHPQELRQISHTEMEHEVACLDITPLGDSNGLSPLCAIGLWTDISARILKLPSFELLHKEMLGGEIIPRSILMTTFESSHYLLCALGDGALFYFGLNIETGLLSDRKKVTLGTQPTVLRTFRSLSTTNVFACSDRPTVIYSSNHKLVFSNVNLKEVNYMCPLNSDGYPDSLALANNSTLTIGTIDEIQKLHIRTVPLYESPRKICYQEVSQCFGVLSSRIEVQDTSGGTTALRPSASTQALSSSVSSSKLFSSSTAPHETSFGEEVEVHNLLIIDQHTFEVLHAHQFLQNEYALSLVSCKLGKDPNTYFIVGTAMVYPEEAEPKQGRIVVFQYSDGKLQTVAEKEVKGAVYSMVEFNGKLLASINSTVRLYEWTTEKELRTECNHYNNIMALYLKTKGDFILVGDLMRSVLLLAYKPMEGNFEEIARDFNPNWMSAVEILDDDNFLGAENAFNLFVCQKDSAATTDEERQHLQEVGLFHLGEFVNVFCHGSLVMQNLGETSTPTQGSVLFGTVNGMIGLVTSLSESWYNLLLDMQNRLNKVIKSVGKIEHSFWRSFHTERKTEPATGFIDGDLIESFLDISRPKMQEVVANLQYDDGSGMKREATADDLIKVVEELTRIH
Description: Conventional Western blot assay was performed to evaluate the effects of the compounds of the present disclosure on the expression of target proteins in cells.
(1) Cell Seeding and Protein Harvesting: The selected cells were processed according to the cell seeding procedure and protein harvesting procedure in Table III-2. Table III-2 Cell Seeding and Protein Harvesting Procedures
(2) To the collected supernatant, 5X SDS sample loading buffer was added, followed by denaturation at 95°C for 5 minutes. The denatured samples were then separated by SDS-PAGE electrophoresis on a polyacrylamide gel. Proteins were transferred to a nitrocellulose membrane (0.45 µm NC membrane), blocked with blocking buffer at room temperature for 1 hour, and subjected to antibody incubation and development procedures according to the antibody manufacturer's instructions (Cell Signaling Technology).
Half-Maximal Degradation Concentration value (the drug concentration required for degrading proteins by 50%, abbreviated as DC50) reads method: comparing the grayscale values of Western blot bands from drug-treated samples with those from blank DMSO-treated controls, and identifying the drug concentration range at which the grayscale value is half that of the DMSO-treated control bands.
DC50 values can be calculated using ImageJ software to measure grayscale values of Western blot bands from drug-treated samples. The concentration-response curve is fitted to estimate the drug concentration corresponding to half the grayscale value.
Target protein remaining (%) refers to the percentage of target protein remaining in hPBMC cells after treatment with protein degrader compounds.
Calculation method for target protein remaining (%): Use ImageJ software to measure grayscale values of Western blot bands from drug (protein degrader)-treated samples. The grayscale value of drug-treated bands is divided by that of internal control protein bands, and the resulting quotient is normalized to obtain the relative percentage of remaining target protein after protein degrader treatment.
Target protein degradation rate (%) = 100% - target protein remaining (%).

SR = assay: CCK-8 proliferation, SR; type: cell-based, Human; conditions: Homo sapiens; Table B10, compounds designed based on the IRAK4 inhibitors; SR cells; read-out: Inhibitory activity (IC50, nM) on tumor cell proliferation, SR
Method in brief: (§1)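 CCK-8 viability readout; IC50 from growth-inhibition curve fitting. Cells plated, dosed 24h later with a 10-point series, top 10µM, 5-fold steps. Culture at 37°C, 5% CO2.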

MM.1S = assay: CCK-8 proliferation, MM.1S; type: cell-based; conditions: Homo sapiens, MM1.S; Table B10, compounds designed based on the IRAK4 inhibitors; MM.1S cells; read-out: Inhibitory activity (IC50, nM) on tumor cell proliferation, MM.1S
Method in brief: as §1

IRAK4 = molecular target: T2, IRAK4 (Homo sapiens, UniProt Q9NWZ3); assay: Western blot degradation of IRAK4 (hPBMC); type: cell-based; conditions: Table D1
T2 construct: evaluate the effects of the compounds of the present disclosure on the expression of target proteins in cells; endogenous in cells; host or cells: hPBMC
T2 sequence (Q9NWZ3 1-460): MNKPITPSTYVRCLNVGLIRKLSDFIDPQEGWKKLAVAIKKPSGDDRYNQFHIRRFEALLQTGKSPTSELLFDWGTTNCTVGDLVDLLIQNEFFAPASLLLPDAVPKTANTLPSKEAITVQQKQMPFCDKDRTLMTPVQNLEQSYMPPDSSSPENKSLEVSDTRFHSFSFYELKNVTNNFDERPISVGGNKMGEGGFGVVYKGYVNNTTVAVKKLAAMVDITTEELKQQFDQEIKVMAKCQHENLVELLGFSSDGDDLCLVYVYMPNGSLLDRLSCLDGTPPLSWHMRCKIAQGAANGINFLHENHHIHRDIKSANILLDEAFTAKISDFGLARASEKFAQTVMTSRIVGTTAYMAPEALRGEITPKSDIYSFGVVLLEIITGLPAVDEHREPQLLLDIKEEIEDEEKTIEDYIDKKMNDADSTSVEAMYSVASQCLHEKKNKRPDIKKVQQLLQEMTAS
Method in brief: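 Degradation is assessed by immunoblotting lysates of treated cells. Target bands are quantified by grayscale and normalised to an internal control, so degradation rate equals 100% minus % remaining.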

[1] = molecular target: T3, human Cereblon WT GST-tagged protein (Homo sapiens, UniProt Q96SW2); assay: CRBN binding, HTRF (CEREBLON BINDING kit); conditions: Table II-2, CRBN binding screening, HTRF; for inhibition at 0.5 µM: read-out: Inhibition rate (%) at 0.5µM; for inhibition at 2 µM: read-out: Inhibition rate (%) at 2 µM
T3 construct: purchased CISBIO 64BDCRBNPEH
T3 sequence (Q96SW2 whole entry): as the sequence (Q96SW2 whole entry) above
Method in brief: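 After 3 h at room temperature, emission at 665 and 620 nm was measured in a homogeneous time-resolved fluorescence format. Compounds competed with a Thalidomide-Re probe for GST-tagged wild-type human CRBN, which was labelled with a Eu anti-GST antibody.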

SMILES	IC50 (MM.1S)	Degradation of substrate protein IRAK4 (substrate protein remaining %) (IRAK4)	inhibition at 0.5 µM ([1]; at 0.5µM)	inhibition at 2 µM ([1]; at 2 µM)	also measured
COc1cc(N2CCN(Cc3cc(N4CCC(=O)NC4=O)cnc3F)CC2)ccc1Nc1ncc(Cl)c(Nc2ccccc2P(C)(C)=O)n1 [GT-07748, 1-(5-((4-(4-((5-chloro-4-((2-(dimethylphosphoryl)phenyl)amino)pyrimidin-2-yl)amino)-3-methoxyphenyl)piperazin-1-yl)methyl)-6-fluoropyridin-3-yl)dihydropyrimidine-2,4(1H,3H)-dione]					Degradation of substrate protein ALK (substrate protein remaining %) (ALK): A (A is defined as 0% ≤ substrate protein remaining % ≤ 80%)
COc1cc(N2CCN(Cc3cnc(N4CCC(=O)NC4=O)cn3)CC2)ccc1Nc1ncc(Cl)c(Nc2ccccc2P(C)(C)=O)n1 [GT-07749, 1-(5-((4-(4-((5-chloro-4-((2-(dimethylphosphoryl)phenyl)amino)pyrimidin-2-yl)amino)-3-methoxyphenyl)piperazin-1-yl)methyl)pyrazin-2-yl)dihydropyrimidine-2,4(1H,3H)-dione]					Degradation of substrate protein ALK (substrate protein remaining %) (ALK): A (A is defined as 0% ≤ substrate protein remaining % ≤ 80%)
O=C1CCC(Nc2cccc(CN3CCN(Cc4ccc5c(c4)nc(NC(=O)c4cccc(C(F)(F)F)c4)n5C4CCC(CO)CC4)CC3)c2)C(=O)N1 (stereo not drawn) [GT-04976, N-(5-((4-(3-((2,6-dioxopiperidin-3-yl)amino)benzyl)piperazin-1-yl)methyl)-1-((1s,4s)-4-(hydroxymethyl)cyclohexyl) -1H-benzo[d]imidazol-2-yl)-3-(trifluoromethyl)benzamide]	100 to 500 nM	A (A is defined as 0% ≤ substrate protein remaining % ≤ 80%)			IC50 (SR): 100 to 500 nM
COc1cc2nn(C3CCN(Cc4cc(C5CCC(=O)NC5=O)cnc4F)CC3)cc2cc1NC(=O)c1cccc(C(F)(F)F)n1 (stereo not drawn) [GT-07549, N-(2-(1-((5-(2,6-dioxopiperidin-3-yl)-2-fluoropyridin-3-yl)methyl)piperidin-4-yl)-6-methoxy-2H-indazol-5-yl)-6-(trifluoromethyl)picolinamide]		A (A is defined as 0% ≤ substrate protein remaining % ≤ 80%)	40 to 53%	80 to 100%	
O=C1CCN(c2cccc(CN3CCN(Cc4ccc5c(c4)nc(NC(=O)c4cccc(C(F)(F)F)c4)n5[C@H]4CC[C@@H](CO)CC4)CC3)c2)C(=O)N1 [GT-04977, N-(5-((4-(3-(2,4-dioxotetrahydropyrimidin-1(2H)-yl)benzyl)piperazin-1-yl)methyl)-1-((1s,4s)-4-(hydroxymethyl)cyclohexyl) -1H-benzo[d]imidazol-2-yl)-3-(trifluoromethyl)benzamide]	100 to 500 nM	A (A is defined as 0% ≤ substrate protein remaining % ≤ 80%)			IC50 (SR): 100 to 500 nM
COc1cc2nn(C3CCN(Cc4ccc(C5CCC(=O)NC5=O)cn4)CC3)cc2cc1NC(=O)c1cccc(C(F)(F)F)c1 (stereo not drawn) [GT-07417, N-(2-(1-((5-(2,6-dioxopiperidin-3-yl)pyridin-2-yl)methyl)piperidin-4-yl)-6-methoxy-2H-indazol-5-yl)-3-(trifluoromethyl)benzamide]		A (A is defined as 0% ≤ substrate protein remaining % ≤ 80%)	30 to 40%	60 to 80%	
CC(C)(O)c1cc2nc(C3CCN(Cc4ccc(C5CCC(=O)NC5=O)cn4)CC3)sc2cc1NC(=O)c1cccc(C(F)(F)F)n1 (stereo not drawn) [GT-07623, N-(2-(1-((5-(2,6-dioxopiperidin-3-yl)pyridin-2-yl)methyl)piperidin-4-yl)-5-(2-hydroxypropan-2-yl)benzo[d]thiazol-6-yl)-6-(trifluoromethyl)picolinamide]		A (A is defined as 0% ≤ substrate protein remaining % ≤ 80%)			Inhibition rate (%) at 0.5µM ([1]; at 0.5µM): a2 (20% < a2 ≤ 30%); Inhibition rate (%) at 2 µM ([1]; at 2 µM): a6 (60% < a6 ≤ 80%)
CC(C)(O)c1cc2nc(C3CCN(Cc4cncc(N5CCC(=O)NC5=O)c4)CC3)oc2cc1NC(=O)c1cccc(C(F)(F)F)n1 [GT-07628, N-(2-(1-((5-(2,4-dioxotetrahydropyrimidin-1(2H)-yl)pyridin-3-yl)methyl)piperidin-4-yl)-5-(2-hydroxypropan-2-yl)benzo[d]oxazol-6-yl)-6-(trifluoromethyl)picolinamide]		A (A is defined as 0% ≤ substrate protein remaining % ≤ 80%)	20 to 30%	60 to 80%	
O=C1CCN(c2ccc(CN3CCC(n4cc(NC(=O)c5coc(-c6ccnc(NCC7CC7)c6)n5)c(C(F)F)n4)CC3)nc2)C(=O)N1 [GT-04958, 2-(2-((cyclopropylmethyl)amino)pyridin-4-yl)-N-(3-(difluoromethyl)-1-(1-((5-(2,4-dioxotetrahydropyrimidin-1(2H)-yl)pyridin-2-yl)methyl)piperidin-4-yl)-1H-pyrazol-4-yl)oxazole-4-carboxamide]	100 to 500 nM	A (A is defined as 0% ≤ substrate protein remaining % ≤ 80%)			
COc1cc2nn(C3CCN(Cc4cncc(C5CCC(=O)NC5=O)c4)CC3)cc2cc1NC(=O)c1cccc(C(F)(F)F)c1 (stereo not drawn) [GT-07419, N-(2-(1-((5-(2,6-dioxopiperidin-3-yl)pyridin-3-yl)methyl)piperidin-4-yl)-6-methoxy-2H-indazol-5-yl)-3-(trifluoromethyl)benzamide]		A (A is defined as 0% ≤ substrate protein remaining % ≤ 80%)	20 to 30%	53 to 60%	
CC(C)(O)c1cc2nc(C3CCN(Cc4ccc(C5CCC(=O)NC5=O)cn4)CC3)oc2cc1NC(=O)c1cccc(C(F)(F)F)n1 (stereo not drawn) [GT-07763, N-(2-(1-((5-(2,6-dioxopiperidin-3-yl)pyridin-2-yl)methyl)piperidin-4-yl)-5-(2-hydroxypropan-2-yl)benzo[d]oxazol-6-yl)-6-(trifluoromethyl)picolinamide]		A (A is defined as 0% ≤ substrate protein remaining % ≤ 80%)	40 to 53%	60 to 80%	
O=C1CCN(c2ccc(CN3CCC(n4cc(NC(=O)c5coc(-c6ccnc(NCC7CC7)c6)n5)c(C(F)F)n4)CC3)cc2)C(=O)N1 [GT-04956, 2-(2-((cyclopropylmethyl)amino)pyridin-4-yl)-N-(3-(difluoromethyl)-1-(1-(4-(2,4-dioxotetrahydropyrimidin-1(2H)-yl)benzyl)piperidin-4-yl)-1H-pyrazol-4-yl)oxazole-4-carboxamide]	100 to 500 nM	A (A is defined as 0% ≤ substrate protein remaining % ≤ 80%)			
CC(C)(O)c1cc2nn(C3CCN(Cc4cncc(C5CCC(=O)NC5=O)c4)CC3)cc2cc1NC(=O)c1cccc(C(F)(F)F)n1 (stereo not drawn) [GT-07543, N-(2-(1-((5-(2,6-dioxopiperidin-3-yl)pyridin-3-yl)methyl)piperidin-4-yl)-6-(2-hydroxypropan-2-yl)-2H-indazol-5-yl)-6-(trifluoromethyl)picolinamide]		A (A is defined as 0% ≤ substrate protein remaining % ≤ 80%)	30 to 40%	60 to 80%	
